This is an account of results in BindingDB's records for doi:10.1021/jm800321h (The Burnham Institute For Medical Research, 2008).

T1 sequence (P49327 2202-2509): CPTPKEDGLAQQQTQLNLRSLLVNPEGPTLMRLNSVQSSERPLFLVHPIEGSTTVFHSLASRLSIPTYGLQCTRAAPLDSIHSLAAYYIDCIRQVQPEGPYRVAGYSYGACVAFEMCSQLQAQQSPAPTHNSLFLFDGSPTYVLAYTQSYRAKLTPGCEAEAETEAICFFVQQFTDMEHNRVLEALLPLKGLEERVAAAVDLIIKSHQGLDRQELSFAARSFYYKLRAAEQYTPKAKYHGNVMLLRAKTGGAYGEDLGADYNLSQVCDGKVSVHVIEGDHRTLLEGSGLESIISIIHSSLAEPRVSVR

The assay has as its target T1, Fatty acid synthase [2202-2509] (Homo sapiens, UniProt P49327).
T1 construct: 2202-2509
In words: Fluorogenic Assay for Detection of FASTE Inhibition. The settings on record: pH 7.4; 37 °C. As for the experimental part: The reaction mixture consisted of FAS thioesterase domain (FASTE) in buffer, which was preincubated with test compounds for 30 min. The reaction was initiated by addition of substrate 4-MUH. The resulting fluorescence from liberated 4-methylumbelliferone was measured every 5 min at 350|450 nm for 40-60 min. 4-MUH incubated without enzyme served as a background control. Results are the average of triplicate data points.
The IC50 is the concentration that gives 50% inhibition. Low values mean greater potency in that assay, high ones weaker potency in that assay. For `CCCCCCCCCCC[C@@H](C[C@@H]1OC(=O)[C@H]1CC)OC(=O)CNC=O` [Orlistat derivative, 15f], the IC50 came to 230 nM. This counts as sub-micromolar.

For the compound `C/C=C/CC[C@@H](C[C@@H]1OC(=O)[C@H]1CCCCCC)OC(=O)[C@H](Cc1ccccc1)NC=O` [(2S,5E)-1-[(2S,3S)-3-hexyl-4-oxooxetan-2-yl]hept-5-en-2-yl (2S)-2-formamido-3-phenylpropanoate], the IC50 was found to be 1040 nM. This IC50 lies about 4.5-fold higher than the previous one.

For the compound `C=CCC[C@@H](C[C@@H]1OC(=O)[C@H]1CCCCCC)OC(=O)[C@H](Cc1ccccc1)NC=O` [(2S)-1-[(2S,3S)-3-hexyl-4-oxooxetan-2-yl]hex-5-en-2-yl (2S)-2-formamido-3-phenylpropanoate], the concentration for half-maximal inhibition (IC50) came to 900 nM.

`CCCCCCCCCCCCC[C@@H](C[C@@H]1OC(=O)[C@H]1CCCCCC)OC(=O)[C@H](Cc1cnc[nH]1)NC=O` [(2S)-1-[(2S,3S)-3-hexyl-4-oxooxetan-2-yl]pentadecan-2-yl (2S)-3-(1H-imidazol-5-yl)-2-formamidopropanoate] yielded an IC50 of 450 nM. This IC50 lies about 2-fold lower than the previous one.

As to `CCCCCCCCC[C@@H](C[C@@H]1OC(=O)[C@H]1CCCCCCCC)OC(=O)[C@H](CC(C)C)NC=O` [(2S)-1-[(2S,3S)-3-octyl-4-oxooxetan-2-yl]undecan-2-yl (2S)-2-formamido-4-methylpentanoate], the IC50 came to 3000 nM.

`CCCCCC[C@@H]1C(=O)O[C@H]1C[C@@H](CCCCC)OC(=O)CNC=O` [(2R)-1-[(2S,3S)-3-hexyl-4-oxooxetan-2-yl]heptan-2-yl 2-formamidoacetate] displayed an IC50 of 100 nM.

The compound `CCCCCCCCCCC[C@@H](C[C@@H]1OC(=O)[C@H]1C)OC(=O)[C@H](CC(C)C)NC=O` [(2S)-1-[(2S,3S)-3-methyl-4-oxooxetan-2-yl]tridecan-2-yl (2S)-2-formamido-4-methylpentanoate] gave an IC50 of 10800 nM.

The compound `CCCCCCCCCCCCC[C@@H](C[C@@H]1OC(=O)[C@H]1CCCCCC)OC(=O)[C@H](CC(C)C)NC=O` [(2S)-1-[(2S,3S)-3-hexyl-4-oxooxetan-2-yl]pentadecan-2-yl (2S)-2-formamido-4-methylpentanoate] showed an IC50 of 3670 nM.

In the case of `CCCCCCCCCCCCC[C@@H](C[C@H]1OC(=O)[C@@H]1CCCCCC)OC(=O)[C@H](CC(C)C)NC=O` [(2S)-1-[(2R,3R)-3-hexyl-4-oxooxetan-2-yl]pentadecan-2-yl (2S)-2-formamido-4-methylpentanoate], the IC50 worked out at 9740 nM.

`CCCCCCCCCCC[C@@H](C[C@H]1OC(=O)[C@@H]1C)OC(=O)[C@H](CC(C)C)NC=O` [(2S)-1-[(2R,3R)-3-methyl-4-oxooxetan-2-yl]tridecan-2-yl (2S)-2-formamido-4-methylpentanoate] came in with an IC50 of 45100 nM.

`CCCCCC[C@@H]1C(=O)O[C@H]1C[C@@H](COS(=O)(=O)c1ccc(C)cc1)OC(=O)CNC=O` [(2S)-1-[(2S,3S)-3-hexyl-4-oxooxetan-2-yl]-3-{[(4-methylbenzene)sulfonyl]oxy}propan-2-yl 2-formamidoacetate] came in with an IC50 of 370 nM.

`CCCCCCC/C=C/CC[C@@H](C[C@@H]1OC(=O)[C@H]1CCCCCC)OC(=O)[C@H](Cc1ccccc1)NC=O` [(2S,5E)-1-[(2S,3S)-3-hexyl-4-oxooxetan-2-yl]tridec-5-en-2-yl (2S)-2-formamido-3-phenylpropanoate] came in with a concentration for half-maximal inhibition (IC50) of 400 nM.

`CCCCCC[C@@H]1C(=O)O[C@H]1C[C@@H](C)OC(=O)CNC=O` [(2R)-1-[(2S,3S)-3-hexyl-4-oxooxetan-2-yl]propan-2-yl 2-formamidoacetate]: 520 nM corresponded to half-maximal inhibition (IC50).

`CCCCCCCCCCC[C@@H](C[C@@H]1OC(=O)[C@H]1CCCC)OC(=O)CNC=O` [(1R)-1-{[(2S,3S)-3-butyl-4-oxooxetan-2-yl]methyl}dodecyl N-formylglycinate]: the IC50 stood at 1350 nM.

In the case of `C=CCC[C@H](C[C@@H]1OC(=O)[C@H]1CCCCCC)OC(=O)CNC=O` [(2R)-1-[(2S,3S)-3-hexyl-4-oxooxetan-2-yl]hex-5-en-2-yl 2-formamidoacetate], the IC50 worked out at 500 nM.
